Test results published in patent publication US20250154197A1, “LIPOLYTIC PEPTIDES” (FUNDACIÓ HOSPITAL UNIVERSITARI VALL D'HEBRON - INSTITUT DE …, priority 2021, published 2025).
Where no end group is shown, it is not given here. [ ]: non-standard residue; d: D form.

Tested on: 3T3-L1 mouse adipocytes
Assay: Lipolytic activity: glycerol release in differentiated 3T3-L1 mouse adipocytes (12 h)
Format: cell-based
Details: 3T3-L1 mouse adipocytes, 12 h
Method: JCRB9014-A) from Tebu-Bio (Tebu-bio, Barcelona, Spain). Briefly, mouse adipocytes (3T3-L1 cells) were cultured in 48 well plates as described previously (Saez-Lopez et al., 2020). Adipocytes were differentiated using cell culture reagents purchased from Tebu-Bio and following the manufacturer's instructions. At day of differentiation cells were treated in duplicates with vehicle (DMSO), Caffeine (100 μg/ml), and each of the peptides at the specified doses in Table 6a below. At the end of the experiment (12 h), supernatants were collected and glycerol content was measured using a Glycerol Assay Kit (Sigma) following manufacturer's instructions.

Substance	Lipolysis Activity measured as Glycerol (μM) release in media (1 μg/ml) [µM]	Lipolysis Activity measured as Glycerol (μM) release in media (10 μg/ml) [µM]	Lipolysis Activity measured as Glycerol (μM) release in media (100 μg/ml) [µM]
TWDPEGVIFY [GP3D-NH2] ([dT][dW][dD][dP][dE]G[dV][dI][dF][dY]-NH2; N-terminus assumed; SMILES CC[C@@H](C)[C@@H](NC(=O)[C@H](NC(=O)CNC(=O)[C@@H](CCC(=O)O)NC(=O)[C@H]1CCCN1C(=O)[C@@H](CC(=O)O)NC(=O)[C@@H](Cc1c[nH]c2ccccc12)NC(=O)[C@H](N)[C@H](C)O)C(C)C)C(=O)N[C@H](Cc1ccccc1)C(=O)N[C@H](Cc1ccc(O)cc1)C(N)=O) [N-term NH2, C-term CONH2]	506	449	368
TWDPEGVIY (H-[dT][dW][dD][dP][dE]G[dV][dI][dY]-OH; not fully specified) [GP3D-9 IX, N-term NH2, C-term COOH]			356
TWDPEVIFY (H-[dT][dW][dD][dP][dE][dV][dI][dF][dY]-OH; not fully specified) [GP3D-9 VI, N-term NH2, C-term COOH]			315
TWDPGVIFY (H-[dT][dW][dD][dP]G[dV][dI][dF][dY]-OH; not fully specified) [GP3D-9 V, N-term NH2, C-term COOH]			394
TWPEGVIFY (H-[dT][dW][dP][dE]G[dV][dI][dF][dY]-OH; not fully specified) [GP3D-9 III, N-term NH2, C-term COOH]			346
WDNEGLY (H-[dW][dD][dN][dE]G[dL][dY]-OH; SMILES CC(C)C[C@@H](NC(=O)CNC(=O)[C@@H](CCC(=O)O)NC(=O)[C@@H](CC(N)=O)NC(=O)[C@@H](CC(=O)O)NC(=O)[C@H](N)Cc1c[nH]c2ccccc12)C(=O)N[C@H](Cc1ccc(O)cc1)C(=O)O) [GP3D-DM4, N-term NH2, C-term COOH]	469	416	309
WDPEG (H-[dW][dD][dP][dE]G-OH; SMILES N[C@H](Cc1c[nH]c2ccccc12)C(=O)N[C@H](CC(=O)O)C(=O)N1CCC[C@@H]1C(=O)N[C@H](CCC(=O)O)C(=O)NCC(=O)O) [GP3D-5 I VII VIII IX X, N-term NH2, C-term COOH]	368	349	398
WDPEGVIF (H-[dW][dD][dP][dE]G[dV]I[dF]-OH; not fully specified (residue 7)) [GP3D-8 I X, N-term NH2, C-term COOH]	616	465	441
WDPEGVIFY (H-[dW][dD][dP][dE]G[dV]I[dF][dY]-OH; not fully specified (residue 7)) [GP3D-9 I, N-term NH2, C-term COOH]			344
WDPEGVIY (H-[dW][dD][dP][dE]G[dV]I[dY]-OH; not fully specified (residue 7)) [GP3D-8 I IX, N-term NH2, C-term COOH]	452	426	588
WDPEGVY (H-[dW][dD][dP][dE]G[dV][dY]-OH; SMILES CC(C)[C@@H](NC(=O)CNC(=O)[C@@H](CCC(=O)O)NC(=O)[C@H]1CCCN1C(=O)[C@@H](CC(=O)O)NC(=O)[C@H](N)Cc1c[nH]c2ccccc12)C(=O)N[C@H](Cc1ccc(O)cc1)C(=O)O) [GP3D-7 I VIII IX, N-term NH2, C-term COOH]		314	
